Measurements from PubChem BioAssay AID652219 (Broad Institute, 2013).
Active and inactive are the calls of the source. No rule for the calls is given here.

system: V. cholerae SLS353 luxOD47E qrr4-GFP fluorescence; assay: Quorum LuxO inhibitors, V. cholerae SLS353 luxOD47E qrr4 GFP fluorescence, confirmatory dose response (AID 652219)

SMILES	AC50
O=C(Cc1ccc(-c2ccccc2)cc1)NC1CCCC1	> 500 µM (inactive)
CCCn1nnnc1NCc1ccc(N(CC)CC)cc1	> 500 µM (inactive)
Cc1ccc2cc3c(NC(=O)c4ccco4)nn(C)c3nc2c1	4 µM
COc1ccccc1NC(=O)COC(=O)c1cc2c(s1)CCC2	> 500 µM (inactive)
O=C(Nc1nnc(-c2ccc3c(c2)OCCO3)o1)C1CCCCC1	2 µM
COc1ccc(Cl)cc1NC(=O)COC(=O)c1ccc(C)o1	> 500 µM (inactive)
COc1ccccc1NC(=O)COC(=O)c1ccc(C)cc1	> 500 µM (inactive)
Cc1ccc(OCCNC(=O)c2cccc(C)c2)cc1	100 µM (inactive)
CCn1nnnc1NCc1ccc(N2CCCC2)cc1	> 500 µM (inactive)
CCCn1nnnc1NCc1ccc(C(C)C)cc1	> 500 µM (inactive)
O=c1ncn(-c2cccc(Cl)c2)c2ccccc12	250 µM
CCCn1nnnc1NCc1ccc(N2CCCC2)cc1	> 500 µM (inactive)
COc1ccccc1NC(=O)COC(=O)c1oc2ccccc2c1C	> 500 µM (inactive)
CCC(C)NC(=O)Cc1ccc(-c2ccccc2)cc1 (stereo not given)	> 500 µM (inactive)
CCOc1ccc(Nc2ccc3nonc3c2[N+](=O)[O-])cc1	> 500 µM (inactive)
